According to PubChem BioAssay (NCI):
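Test compounds were applied to cells in 96-well plates for 48 hours at 5 doses. GI50: concentration for 50% inhibition of growth. TGI: concentration producing complete growth inhibition.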

How the values were obtained:
Assay in all cases: NCI anticancer screen, dose series, 48 h
HS 578T breast = system: HS 578T breast
NCI-H226 lung = system: NCI-H226 lung
MALME-3M melanoma = system: MALME-3M melanoma
SK-OV-3 ovarian = system: SK-OV-3 ovarian
UO-31 renal = system: UO-31 renal
HT29 colon = system: HT29 colon
MDA-MB-435 = system: MDA-MB-435
M14 melanoma = system: M14 melanoma
PC-3 prostate = system: PC-3 prostate
OVCAR-8 ovarian = system: OVCAR-8 ovarian
OVCAR-4 ovarian = system: OVCAR-4 ovarian
HOP-62 NSCLC = system: HOP-62 NSCLC
LOX IMVI melanoma = system: LOX IMVI melanoma
CCRF-CEM leukemia = system: CCRF-CEM leukemia
SK-MEL-5 melanoma = system: SK-MEL-5 melanoma
SF-539 CNS = system: SF-539 CNS
A549 NSCLC = system: A549 NSCLC
SK-MEL-28 melanoma = system: SK-MEL-28 melanoma
RXF 393 renal = system: RXF 393 renal
SW-620 colon = system: SW-620 colon
RPMI-8226 leukemia = system: RPMI-8226 leukemia
HCT-116 colon = system: HCT-116 colon
K-562 leukemia = system: K-562 leukemia
UACC-62 melanoma = system: UACC-62 melanoma
HCT-15 colon = system: HCT-15 colon
HCC-2998 colon = system: HCC-2998 colon
TK-10 renal = system: TK-10 renal
T-47D breast = system: T-47D breast
MDA-MB-231 breast = system: MDA-MB-231 breast
NCI/ADR-RES ovarian = system: NCI/ADR-RES ovarian
SR leukemia = system: SR leukemia
NCI-H522 lung = system: NCI-H522 lung
SNB-19 CNS = system: SNB-19 CNS
MOLT-4 leukemia = system: MOLT-4 leukemia
SF-295 CNS = system: SF-295 CNS
HOP-92 NSCLC = system: HOP-92 NSCLC
ACHN renal = system: ACHN renal
OVCAR-5 ovarian = system: OVCAR-5 ovarian
NCI-H460 lung = system: NCI-H460 lung
A498 renal = system: A498 renal
COLO 205 colon = system: COLO 205 colon
NCI-H23 lung = system: NCI-H23 lung
MCF7 breast = system: MCF7 breast
SNB-75 CNS = system: SNB-75 CNS
UACC-257 melanoma = system: UACC-257 melanoma
BT-549 breast = system: BT-549 breast
EKVX NSCLC = system: EKVX NSCLC
U251 CNS = system: U251 CNS
CAKI-1 renal = system: CAKI-1 renal
HL-60(TB) leukemia = system: HL-60(TB) leukemia
786-0 renal = system: 786-0 renal
SN12C renal = system: SN12C renal

`NC1CCN(c2nc(Nc3cccc(C(F)(F)F)c3)c3c(=O)[nH]ccc3n2)CC1` was tested, and the GI50 (HS 578T breast) was 1640 nM, the TGI (HS 578T breast) was 4260 nM and the GI50 (NCI-H226 lung) was 1860 nM. It also gave a TGI (NCI-H226 lung) of 3700 nM, a GI50 (MALME-3M melanoma) of 1880 nM and a TGI (MALME-3M melanoma) of 3830 nM. It also gave a GI50 (SK-OV-3 ovarian) of 1080 nM, a TGI (SK-OV-3 ovarian) of 2390 nM and a GI50 (UO-31 renal) of 1190 nM. It also gave a TGI (UO-31 renal) of 2620 nM, a GI50 (HT29 colon) of 1170 nM and a TGI (HT29 colon) of 4890 nM. For the same compound, the GI50 (MDA-MB-435) was 1090 nM, the TGI (MDA-MB-435) was 2420 nM and the GI50 (M14 melanoma) was 1010 nM. It also gave a TGI (M14 melanoma) of 2230 nM, a GI50 (PC-3 prostate) of 1780 nM and a TGI (PC-3 prostate) of 3590 nM. For the same compound, the GI50 (OVCAR-8 ovarian) was 2060 nM, the TGI (OVCAR-8 ovarian) was 4910 nM and the GI50 (OVCAR-4 ovarian) was 1530 nM. The TGI (OVCAR-4 ovarian) was 3840 nM, the GI50 (HOP-62 NSCLC) was 1760 nM and the TGI (HOP-62 NSCLC) was 3540 nM. The GI50 (LOX IMVI melanoma) was 1330 nM, the TGI (LOX IMVI melanoma) was 2720 nM and the GI50 (CCRF-CEM leukemia) was 1260 nM. The TGI (CCRF-CEM leukemia) was 6880 nM, the GI50 (SK-MEL-5 melanoma) was 1540 nM and the TGI (SK-MEL-5 melanoma) was 2900 nM. The GI50 (SF-539 CNS) was 1770 nM, the TGI (SF-539 CNS) was 3260 nM and the GI50 (A549 NSCLC) was 1340 nM. The TGI (A549 NSCLC) was 2990 nM, the GI50 (SK-MEL-28 melanoma) was 1820 nM and the TGI (SK-MEL-28 melanoma) was 3320 nM. It also gave a GI50 (RXF 393 renal) of 1310 nM, a TGI (RXF 393 renal) of 2670 nM and a GI50 (SW-620 colon) of 1190 nM. It also gave a TGI (SW-620 colon) of 2670 nM, a GI50 (RPMI-8226 leukemia) of 1910 nM and a TGI (RPMI-8226 leukemia) of 4840 nM. For the same compound, the GI50 (HCT-116 colon) was 1090 nM, the TGI (HCT-116 colon) was 2300 nM and the GI50 (K-562 leukemia) was 1180 nM. For the same compound, the TGI (K-562 leukemia) was 3210 nM, the GI50 (UACC-62 melanoma) was 1830 nM and the TGI (UACC-62 melanoma) was 3510 nM. For the same compound, the GI50 (HCT-15 colon) was 584 nM, the TGI (HCT-15 colon) was 2260 nM and the GI50 (HCC-2998 colon) was 1600 nM. The TGI (HCC-2998 colon) was 3000 nM, the GI50 (TK-10 renal) was 1300 nM and the TGI (TK-10 renal) was 2720 nM. For the same compound, the GI50 (T-47D breast) was 1560 nM, the TGI (T-47D breast) was 3260 nM and the GI50 (MDA-MB-231 breast) was 2000 nM. It also gave a TGI (MDA-MB-231 breast) of 3600 nM, a GI50 (NCI/ADR-RES ovarian) of 1870 nM and a TGI (NCI/ADR-RES ovarian) of 3630 nM. It also gave a GI50 (SR leukemia) of 774 nM, a TGI (SR leukemia) of 2820 nM and a GI50 (NCI-H522 lung) of 1760 nM. For the same compound, the TGI (NCI-H522 lung) was 3570 nM, the GI50 (SNB-19 CNS) was 2000 nM and the TGI (SNB-19 CNS) was 3590 nM. It also gave a GI50 (MOLT-4 leukemia) of 1050 nM, a TGI (MOLT-4 leukemia) of 4800 nM and a GI50 (SF-295 CNS) of 1960 nM. It also gave a TGI (SF-295 CNS) of 3590 nM, a GI50 (HOP-92 NSCLC) of 1440 nM and a TGI (HOP-92 NSCLC) of 3040 nM. The GI50 (ACHN renal) was 944 nM, the TGI (ACHN renal) was 2210 nM and the GI50 (OVCAR-5 ovarian) was 1680 nM. It also gave a TGI (OVCAR-5 ovarian) of 3440 nM, a GI50 (NCI-H460 lung) of 1260 nM and a TGI (NCI-H460 lung) of 2800 nM. For the same compound, the GI50 (A498 renal) was 1640 nM, the TGI (A498 renal) was 3140 nM and the GI50 (COLO 205 colon) was 1400 nM. It also gave a TGI (COLO 205 colon) of 2820 nM, a GI50 (NCI-H23 lung) of 1580 nM and a TGI (NCI-H23 lung) of 3110 nM. The GI50 (MCF7 breast) was 1350 nM, the TGI (MCF7 breast) was 3020 nM and the GI50 (SNB-75 CNS) was 1770 nM. It also gave a TGI (SNB-75 CNS) of 3190 nM, a GI50 (UACC-257 melanoma) of 2060 nM and a TGI (UACC-257 melanoma) of 3980 nM. It also gave a GI50 (BT-549 breast) of 1590 nM, a TGI (BT-549 breast) of 3000 nM and a GI50 (EKVX NSCLC) of 1350 nM. It also gave a TGI (EKVX NSCLC) of 3160 nM, a GI50 (U251 CNS) of 1730 nM and a TGI (U251 CNS) of 3550 nM. For the same compound, the GI50 (CAKI-1 renal) was 444 nM, the TGI (CAKI-1 renal) was 1880 nM and the GI50 (HL-60(TB) leukemia) was 603 nM. The TGI (HL-60(TB) leukemia) was 2410 nM, the GI50 (786-0 renal) was 1240 nM and the TGI (786-0 renal) was 2550 nM. For the same compound, the GI50 (SN12C renal) was 1370 nM and the TGI (SN12C renal) was 2800 nM.
